In US20240252488A1 (KOREA RESEARCH INSTITUTE OF CHEMICAL TECHNOLOGY, priority 2020, published 2024):

Key:
[1] = system: FADD−/− Jurkat cells; experiment: Necroptosis inhibition assay, TNF-α-induced necroptosis (CellTiter-Glo 2.0); assay type: cell-based, human; conditions: TNF-α 15 ng/mL; for Necroptosis inhibition assay (Rescue %) 1 μM: compound 1 μM; for Necroptosis inhibition assay (Rescue %) 10 μM: compound 10 μM
Summary of the method: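 Necroptosis was triggered by TNF-α at 15 ng/mL final following 30 minutes of compound exposure (0.1, 1 or 10 μM final). Incubation ran 20 to 24 hours at 37° C under 5% CO2; cell ATP was then quantified by luminescence.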

[2] = target: T1, MLKL (Homo sapiens, UniProt Q8NB16); experiment: MLKL degradation assay in HepG2 cell line (western blot); assay type: cell-based; design: endogenous in cells; host or cells: HepG2 or HaCaT; conditions: cell line not given; for Degradation assay (Degradation %) 1 μM: compound 1 μM; for Degradation assay (Degradation %) 10 μM: compound 10 μM
T1 sequence (Q8NB16 1-471): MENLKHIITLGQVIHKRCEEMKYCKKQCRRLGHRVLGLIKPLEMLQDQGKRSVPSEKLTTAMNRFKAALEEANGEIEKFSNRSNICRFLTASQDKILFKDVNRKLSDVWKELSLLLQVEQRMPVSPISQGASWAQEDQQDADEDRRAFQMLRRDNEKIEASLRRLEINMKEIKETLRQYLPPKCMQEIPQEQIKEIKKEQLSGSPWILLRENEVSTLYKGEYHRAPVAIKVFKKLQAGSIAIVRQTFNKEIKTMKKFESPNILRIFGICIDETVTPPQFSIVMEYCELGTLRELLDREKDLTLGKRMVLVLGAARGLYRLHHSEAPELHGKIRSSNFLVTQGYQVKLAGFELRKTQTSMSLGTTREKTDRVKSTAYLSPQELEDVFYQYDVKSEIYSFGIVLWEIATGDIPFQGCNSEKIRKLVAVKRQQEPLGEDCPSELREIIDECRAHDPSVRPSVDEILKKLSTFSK
Summary of the method: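 After treating HepG2 with test compounds (final 1 μM or 10 μM) for 20-24 h, we lysed cells, equalized protein by BCA and probed MLKL by overnight primary antibody at 4 °C followed by chemiluminescent detection.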

[3] = target: T1, MLKL; experiment: Measurement of binding affinity with MLKL receptor (competitive binding assay, Kd); design: made in house; host or cells: HEK 293 cell line (T7 phage in E. coli BL21-derived host is also described)
Summary of the method: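 Kd comes from a bead-based competition format: compound-dependent loss of DNA-tagged, HEK 293-expressed MLKL capture, measured as eluate kinase by qPCR. Final DMSO is 0.9%.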

Row | SMILES | Degradation assay (Degradation %) 1 μM [2] | Degradation assay (Degradation %) 10 μM [2] | Kd [3] | Necroptosis inhibition assay (Rescue %) 1 μM [1] | Necroptosis inhibition assay (Rescue %) 10 μM [1]
1 | Nc1ncc(-c2cnn(C3CCN(C(=O)CC4CCN(C(=O)CNc5ccc6c(c5)C(=O)N(C5CCC(=O)NC5=O)C6=O)CC4)CC3)c2)nc1C(=O)O[C@@H](C(=O)Nc1ccc(F)cc1)c1ccccc1 (stereo partly drawn) [TDH-340, (R)-2-((4-fluorophenyl)amino)-2-oxo-1-phenylethyl 3-amino-6-(1-(1-(2-(1-((2-(2,6-dioxopiperidin-3-yl)-1,3-dioxoisoindolin-5-yl)glycyl)piperidin-4-yl)acetyl)piperidin-4-yl)-1H-pyrazol-4-yl)pyrazine-2-carboxylate] | 73.39% | 73.33% | 7.5 nM | 42.94% | 43.81%
2 | Nc1ncc(-c2cnn(C3CCN(C(=O)CC4CCN(C(=O)C5CCN(c6cccc7c6C(=O)N(C6CCC(=O)NC6=O)C7=O)CC5)CC4)CC3)c2)nc1C(=O)O[C@@H](C(=O)Nc1ccc(F)cc1)c1ccccc1 (stereo partly drawn) [TDH-341, (R)-2-((4-fluorophenyl)amino)-2-oxo-1-phenylethyl 3-amino-6-(1-(1-(2-(1-(1-(2-(2,6-dioxopiperidin-3-yl)-1,3-dioxoisoindolin-4-yl)piperidine-4-carbonyl)piperidin-4-yl)acetyl)piperidin-4-yl)-1H-pyrazol-4-yl)pyrazine-2-carboxylate] | 70.78% | 51.56% | 3.5 nM | 38.23% | 24.8%
3 | Nc1ncc(-c2cnn(C3CCN(C(=O)CC4CCN(C(=O)C5CCN(c6ccc7c(c6)C(=O)N(C6CCC(=O)NC6=O)C7=O)CC5)CC4)CC3)c2)nc1C(=O)O[C@@H](C(=O)Nc1ccc(F)cc1)c1ccccc1 (stereo partly drawn) [TDH-342, (R)-2-((4-fluorophenyl)amino)-2-oxo-1-phenylethyl 3-amino-6-(1-(1-(2-(1-(1-(2-(2,6-dioxopiperidin-3-yl)-1,3-dioxoisoindolin-5-yl)piperidine-4-carbonyl)piperidin-4-yl)acetyl)piperidin-4-yl)-1H-pyrazol-4-yl)pyrazine-2-carboxylate] | 70.74% | 54.03% | 5.8 nM | 28.05% | 17.55%
4 | Nc1ncc(-c2cnn(C3CCN(C(=O)CC4CCN(c5cccc6c5C(=O)N(C5CCC(=O)NC5=O)C6=O)CC4)CC3)c2)nc1C(=O)O[C@@H](C(=O)Nc1ccc(F)cc1)c1ccccc1 (stereo partly drawn) [TDH-343, (R)-2-((4-fluorophenyl)amino)-2-oxo-1-phenylethyl 3-amino-6-(1-(1-(2-(1-(2-(2,6-dioxopiperidin-3-yl)-1,3-dioxoisoindolin-4-yl)piperidin-4-yl)acetyl)piperidin-4-yl)-1H-pyrazol-4-yl)pyrazine-2-carboxylate] | 31.43% | 43.78% | 11 nM | 12.75% | 14.42%
5 | Nc1ncc(-c2cnn(C3CCN(C(=O)CC4CCN(c5ccc6c(c5)C(=O)N(C5CCC(=O)NC5=O)C6=O)CC4)CC3)c2)nc1C(=O)O[C@@H](C(=O)Nc1ccc(F)cc1)c1ccccc1 (stereo partly drawn) [TDH-344, (R)-2-((4-fluorophenyl)amino)-2-oxo-1-phenylethyl 3-amino-6-(1-(1-(2-(1-(2-(2,6-dioxopiperidin-3-yl)-1,3-dioxoisoindolin-5-yl)piperidin-4-yl)acetyl)piperidin-4-yl)-1H-pyrazol-4-yl)pyrazine-2-carboxylate] | 64.15% | 47.75% | 13 nM | 14.48% | 17.63%
6 | Nc1ncc(-c2cnn(C3CCN(C[C@H]4CC[C@H](CNC(=O)C5CCN(c6cccc7c6C(=O)N(C6CCC(=O)NC6=O)C7=O)CC5)CC4)CC3)c2)nc1C(=O)O[C@@H](C(=O)Nc1ccc(F)cc1)c1ccccc1 (stereo partly drawn) [TDH-349, (R)-2-((4-fluorophenyl)amino)-2-oxo-1-phenylethyl 3-amino-6-(1-(1-(((1r,4r)-4-((1-(2-(2,6-dioxopiperidin-3-yl)-1,3-dioxoisoindolin-4-yl)piperidine-4-carboxamido)methyl)cyclohexyl)methyl)piperidin-4-yl)-1H-pyrazol-4-yl)pyrazine-2-carboxylate] | 93.71% | 92.68% | 3.7 nM | 45.54% | 42.11%
7 | Nc1ncc(-c2cnn(C3CCN(C[C@H]4CC[C@H](CNC(=O)C5CCN(c6ccc7c(c6)C(=O)N(C6CCC(=O)NC6=O)C7=O)CC5)CC4)CC3)c2)nc1C(=O)O[C@@H](C(=O)Nc1ccc(F)cc1)c1ccccc1 (stereo partly drawn) [TDH-350, (R)-2-((4-fluorophenyl)amino)-2-oxo-1-phenylethyl 3-amino-6-(1-(1-(((1r,4r)-4-((1-(2-(2,6-dioxopiperidin-3-yl)-1,3-dioxoisoindolin-5-yl)piperidine-4-carboxamido)methyl)cyclohexyl)methyl)piperidin-4-yl)-1H-pyrazol-4-yl)pyrazine-2-carboxylate] | 86.13% | 88.73% | 3.7 nM | 39.64% | 34.84%

Stronger by Kd [3], values ahead:

Row | Degradation assay (Degradation %) 1 μM [2] | Degradation assay (Degradation %) 10 μM [2] | Kd [3] | SMILES | Necroptosis inhibition assay (Rescue %) 1 μM [1] | Necroptosis inhibition assay (Rescue %) 10 μM [1]
8 | 77.96% | 85.06% | 1.9 nM | Nc1ncc(-c2cnn(C3CCN(C[C@H]4CC[C@H](CNC(=O)CNc5cccc6c5C(=O)N(C5CCC(=O)NC5=O)C6=O)CC4)CC3)c2)nc1C(=O)O[C@@H](C(=O)Nc1ccc(F)cc1)c1ccccc1 (stereo partly drawn) [TDH-347, (R)-2-((4-fluorophenyl)amino)-2-oxo-1-phenylethyl 3-amino-6-(1-(1-(((1r,4r)-4-((2-((2-(2,6-dioxopiperidin-3-yl)-1,3-dioxoisoindolin-4-yl)amino)acetamido)methyl)cyclohexyl)methyl)piperidin-4-yl)-1H-pyrazol-4-yl)pyrazine-2-carboxylate] | 23.88% | 12.87%
9 | 48.66% | 81.15% | 1.6 nM | Nc1ncc(-c2cnn(C3CCN(C[C@H]4CC[C@H](CNC(=O)CNc5ccc6c(c5)C(=O)N(C5CCC(=O)NC5=O)C6=O)CC4)CC3)c2)nc1C(=O)O[C@@H](C(=O)Nc1ccc(F)cc1)c1ccccc1 (stereo partly drawn) [TDH-348, (R)-2-((4-fluorophenyl)amino)-2-oxo-1-phenylethyl 3-amino-6-(1-(1-(((1r,4r)-4-((2-((2-(2,6-dioxopiperidin-3-yl)-1,3-dioxoisoindolin-5-yl)amino)acetamido)methyl)cyclohexyl)methyl)piperidin-4-yl)-1H-pyrazol-4-yl)pyrazine-2-carboxylate] | 61.43% | 29.04%
10 | 87.91% | 80.66% | 1.5 nM | Nc1ncc(-c2cnn(C3CCN(C[C@H]4CC[C@H](CNC(=O)COc5cccc6c5C(=O)N(C5CCC(=O)NC5=O)C6=O)CC4)CC3)c2)nc1C(=O)O[C@@H](C(=O)Nc1ccc(F)cc1)c1ccccc1 (stereo partly drawn) [TDH-345, (R)-2-((4-fluorophenyl)amino)-2-oxo-1-phenylethyl 3-amino-6-(1-(1-(((1r,4r)-4-((2-((2-(2,6-dioxopiperidin-3-yl)-1,3-dioxoisoindolin-4-yl)oxy)acetamido)methyl)cyclohexyl)methyl)piperidin-4-yl)-1H-pyrazol-4-yl)pyrazine-2-carboxylate] | 29.41% | 19.45%
11 | 85.62% | 81.91% | 1.2 nM | Nc1ncc(-c2cnn(C3CCN(C[C@H]4CC[C@H](CNC(=O)COc5ccc6c(c5)C(=O)N(C5CCC(=O)NC5=O)C6=O)CC4)CC3)c2)nc1C(=O)O[C@@H](C(=O)Nc1ccc(F)cc1)c1ccccc1 (stereo partly drawn) [TDH-346, (R)-2-((4-fluorophenyl)amino)-2-oxo-1-phenylethyl 3-amino-6-(1-(1-(((1r,4r)-4-((2-((2-(2,6-dioxopiperidin-3-yl)-1,3-dioxoisoindolin-5-yl)oxy)acetamido)methyl)cyclohexyl)methyl)piperidin-4-yl)-1H-pyrazol-4-yl)pyrazine-2-carboxylate] | 57.41% | 24.57%
